Measured values taken from publication PMC11642016 (International Journal of Molecular Sciences, 2024).
Where “and” joins values, the source holds several entries; their conditions need not be identical. Identical values can stand only once. Like-named read-outs stand apart in the source and are kept apart here.

Legend:
PANC-1 cells = assay: CellTiter-Glo luminescent cell viability assay, PANC-1
[1] = CellTiter-Glo luminescent cell viability assay, primary fibroblasts; conditions: human, primary skin fibroblasts (non-tumorous), Primer fibroblast Cell viability (% of controll), 72 h, dose–response, individual replicates
[2] = test system: non-tumorous primary fibroblast cells; assay: as above; conditions: for Primer fibroblast Cell viability (% of controll): dose–response, individual replicates; for IC50: Homo sapiens, Fibroblast
[3] = CellTiter-Glo cell viability assay, HEK293T CLPP−/− (ClpP dependence); conditions: human, HEK293T CLPP−/− cells, HEK293T CLPP-/- Cell viability (% of controll), 72 h, dose–response, individual replicates;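 note: CellTiter-Glo luminescent signal read on a microplate reader once HEK293T CLPP−/− cells had been exposed to compounds for 72 h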
Procedure: Primary fibroblast cultures were prepared from human skin biopsies and maintained in DMEM supplemented with 10% FBS, 1% penicillin-streptomycin, and 1% MEM Non-Essential Amino Acids Solution (Thermo Fisher Scientific). […] All cell lines were cultured in a humidified atmosphere at 37 °C and 5% CO2, passaged twice a week, and the experiments were performed on cells between passage 5 and 15. The cell lines were routinely screened for the absence of mycoplasma infection (DAPI staining).
The effects of the synthesized compounds on cell viability were measured using the CellTiter-Glo® luminescent cell viability assay (Promega, Madison, WI, USA), according to the manufacturer’s instructions. Briefly, cells were seeded onto a flat-bottomed, white 96-well plate (BRANDplates, cat. no.: 781965)), with the following densities: PANC-1: 750 cells/well, Fadu: 2000 cells/well, primary fibroblasts: 2000 cells/well, HEK293T WT: 1000 cells/well, HEK293T CLPP^−/−: 2500 cells/well. After seeding, cells were incubated for a further 48 h before treatment. Cells were treated with the compounds for 72 h. Three concentrations (25.0 µM; 8.3 µM; 2.8 µM) were applied during the initial cell viability screening, while for the determination of dose–response curves, 1.5-fold serially diluted compound concentrations were applied (range: 26 µM–0.7 µM). After treatment, the luminescence signal was recorded using a microplate reader (BioTek Synergy 2 Multi-Mode Reader, BioTek, Winooski, VT, USA).
Data analysis was performed using GraphPad Prism 9.5.0 software (GraphPad Software, San Diego, CA, USA). […] The dose–response curves were generated by four-parameter nonlinear regression, and the IC50 values were determined as the means ± SEM of the best-fit values of 3 independent measurements. The R^2 values were consistently above 0.93, indicating a strong fit of the model to the experimental data (Supplementary S.89). […] Dunnett’s post hoc test was applied to adjust for multiple comparisons, minimizing the likelihood of false positive results. Assumptions for ANOVA, including normality (assessed via QQ plots) and homogeneity of variance (tested using the Brown–Forsythe test), were verified. The following significance levels were applied: * p < 0.05, ** p < 0.01, *** p < 0.001, **** p < 0.0001. […] The tumor selectivity of the compounds was quantitatively characterized by the selectivity index (SI). This parameter was calculated as the ratio of the average best-fit IC50 value for primary fibroblasts and the best-fit IC50 value for the corresponding tumor cells (PANC-1 or Fadu).

Structure (SMILES): CNCC#Cc1cccc(CN2C(=O)C3=C(CCN(Cc4ccc(-n5cc(-c6ccccc6)nn5)cc4)C3)N3CCN=C23)c1 [38b]
- PANC-1 Cell viability (% of controll) (PANC-1 cells; 1.5 μM, 72 h, dose–response, individual replicates): 107 % of controll and 116 % of controll
- PANC-1 Cell viability (% of controll) (PANC-1 cells; 2.3 μM, 72 h, dose–response, individual replicates): 79 % of controll and 98 % of controll
- PANC-1 Cell viability (% of controll) (PANC-1 cells; 3.4 μM, 72 h, dose–response, individual replicates): 0 % of controll and 1 % of controll
- PANC-1 Cell viability (% of controll) (PANC-1 cells; 5.1 μM, 72 h, dose–response, individual replicates): 0 % of controll
- PANC-1 Cell viability (% of controll) (PANC-1 cells; 7.7 μM, 72 h, dose–response, individual replicates): 0 % of controll
- PANC-1 Cell viability (% of controll) (PANC-1 cells; 17.3 μM, 72 h, dose–response, individual replicates): 0 % of controll
- PANC-1 Cell viability (% of controll) (PANC-1 cells; 26 μM, 72 h, dose–response, individual replicates): 0 % of controll
- viability at 2.8 µM (PANC-1 cells; Homo sapiens, PANC-1, 72 h, read-out: Cell Viability (% of Control) 2.8 µM, PANC-1, 2.8 µM, 72 h, second-set screening, mean ± SD, n = 2): 6 ± 6%
- viability at 8.3 µM (PANC-1 cells; Homo sapiens, PANC-1, 72 h, read-out: Cell Viability (% of Control) 8.3 µM, PANC-1, 8.3 µM, 72 h, second-set screening, mean ± SD, n = 2): 0%
- viability at 25 µM (PANC-1 cells; Homo sapiens, PANC-1, 72 h, read-out: Cell Viability (% of Control) 25 µM, PANC-1, 25 µM, 72 h, second-set screening, mean ± SD, n = 2): 0%
- IC50 (PANC-1 cells; Homo sapiens, PANC-1, 72 h, read-out: IC50 Value ± SEM PANC-1, 72 h treatment, best-fit values, n = 3): 2.5 ± 0.23 µM
- viability at 0.7 µM (PANC-1 cells; Homo sapiens, PANC-1, 72 h, read-out: PANC-1 Cell viability (% of controll), 0.7 μM, 72 h, dose–response, individual replicates): 110%
- viability at 1 µM (PANC-1 cells; Homo sapiens, PANC-1, 72 h, read-out: PANC-1 Cell viability (% of controll), 1 μM, 72 h, dose–response, individual replicates): 110%
- viability at 1.5 µM (PANC-1 cells; Homo sapiens, PANC-1, 72 h, read-out: PANC-1 Cell viability (% of controll), 1.5 μM, 72 h, dose–response, individual replicates): 109%
- viability at 2.3 µM (PANC-1 cells; Homo sapiens, PANC-1, 72 h, read-out: PANC-1 Cell viability (% of controll), 2.3 μM, 72 h, dose–response, individual replicates): 81%
- viability at 5.1 µM (PANC-1 cells; Homo sapiens, PANC-1, 72 h, read-out: PANC-1 Cell viability (% of controll), 5.1 μM, 72 h, dose–response, individual replicates): 0%
- viability at 7.7 µM (PANC-1 cells; Homo sapiens, PANC-1, 72 h, read-out: PANC-1 Cell viability (% of controll), 7.7 μM, 72 h, dose–response, individual replicates): 0%
- viability at 17.3 µM (PANC-1 cells; Homo sapiens, PANC-1, 72 h, read-out: PANC-1 Cell viability (% of controll), 17.3 μM, 72 h, dose–response, individual replicates): 0%
- viability at 26 µM (PANC-1 cells; Homo sapiens, PANC-1, 72 h, read-out: PANC-1 Cell viability (% of controll), 26 μM, 72 h, dose–response, individual replicates): 0%
- IC50 (PANC-1 cells; Homo sapiens, PANC-1, read-out: PANC-1 IC50 values, Mean, mean of independently fitted replicate IC50 values (Supplement S.6)): 2.45 µM
- Selectivity Index (SI) Fibroblast/PANC-1 (PANC-1 cells; ratio of mean best-fit IC50 for primary fibroblasts and best-fit IC50 for PANC-1): 1.8
- viability at 72 h, 0.7 µM ([1]; 0.7 μM): 103%
- viability at 72 h, 1 µM ([1]; 1 μM): 112%
- viability at 72 h, 1.5 µM ([1]; 1.5 μM): 106%
- viability at 72 h, 2.3 µM ([1]; 2.3 μM): 116%
- viability at 72 h, 3.4 µM ([1]; 3.4 μM): 112%
- viability at 72 h, 5.1 µM ([1]; 5.1 μM): 6%
- viability at 72 h, 7.7 µM ([1]; 7.7 μM): 0%
- viability at 72 h, 17.3 µM ([1]; 17.3 μM): 0%
- viability at 72 h, 26 µM ([1]; 26 μM): 0%
- Primer fibroblast Cell viability (% of controll) ([2]; 0.7 μM, 72 h): 107 % of controll and 109 % of controll
- Primer fibroblast Cell viability (% of controll) ([2]; 1 μM, 72 h): 117 % of controll and 101 % of controll
- Primer fibroblast Cell viability (% of controll) ([2]; 1.5 μM, 72 h): 118 % of controll
- Primer fibroblast Cell viability (% of controll) ([2]; 2.3 μM, 72 h): 107 % of controll
- Primer fibroblast Cell viability (% of controll) ([2]; 3.4 μM, 72 h): 110 % of controll and 101 % of controll
- Primer fibroblast Cell viability (% of controll) ([2]; 5.1 μM, 72 h): 5 % of controll and 8 % of controll
- Primer fibroblast Cell viability (% of controll) ([2]; 7.7 μM, 72 h): 0 % of controll
- Primer fibroblast Cell viability (% of controll) ([2]; 17.3 μM, 72 h): 0 % of controll
- Primer fibroblast Cell viability (% of controll) ([2]; 26 μM, 72 h): 0 % of controll
- IC50 ([2]; 72 h, read-out: IC50 Value ± SEM Primary Fibroblast, 72 h treatment, best-fit values, n = 3): 4.4 ± 0.23 µM
- IC50 ([2]; read-out: Primary fibroblast IC50 values, Mean, mean of independently fitted replicate IC50 values (Supplement S.6), ONC201 value mathematically estimated from inflection point): 4.45 µM
- viability at 72 h, 0.4 µM ([3]; 0.4 μM): 113%
- viability at 72 h, 0.6 µM ([3]; 0.6 μM): 117%
- viability at 72 h, 1 µM ([3]; 1.0 μM): 118%
- viability at 72 h, 1.6 µM ([3]; 1.6 μM): 100%
- viability at 72 h, 6.4 µM ([3]; 6.4 μM): 0%
- viability at 72 h, 16.25 µM ([3]; 16.25 μM): 0%
- viability at 72 h, 26 µM ([3]; 26 μM): 0%
